Data from patent publication US20050055748A1, “Stress-responsive genes, regulatory elements, and methods of use for same” (priority 2003, published 2005).
Entries after “also recorded” stand apart in the source; their conditions may differ.

Experiments:
Assay type in all cases: cell-based, Zea mays
Hi-II maize cells = test: Growth of Hi-II maize callus cells on media containing sucrose and raffinose, with or without dehydration stress; conditions: for Relative weight gain, Dehydration stressed: dried in a flowhood for 4 h; for Relative weight gain, Dehydration stressed / Relative weight gain, Control: increase in weight relative to initial weight, means of three replicates; for Relative weight gain, Control: no dehydration stress
Procedure: Table 1. Growth of Hi-II maize cells in culture on media containing sucrose and raffinose. Hi-II cells were weighed, cultured on different media for 4 d, transferred to N6 medium, cultured for another 7 d, and re-weighed. For dehydration stress, Hi-II cells were weighed, cultured on different media for […] , dried in a flowhood for 4 h, subsampled for water content, returned to the initial media for 1 d, transferred to N6 medium, cultured for 7 days, and re-weighed. Growth rates (increase in weight relative to initial weight) and water contents (dry weight basis) are the means of three replicates. Analysis of variance and mean separations were calculated among media within a dehydration stress treatment.
(§1) Maize Hi-II callus cultures were initiated according to Armstrong and Green (1985) from immature embryos isolated from Hi-II maize plants provided by Pioneer. Cultures were incubated in the dark at 25° C. on solid N6 medium containing 2% (w/v) sucrose (Chu et al., 1975) amended with 2 mg/L 2,4-dichlorophenoxyacetic acid, 25 mmol/L L-proline, and 10 μmol/L AgNO3, pH 5.8 (N6S2 medium) and sub-cultured every two weeks onto fresh media. For experimental treatments, approximately 2 g of cells (fresh weight) were added to each 100×15 mm plate. To determine the effect of various sugars and environmental stresses on the expression of ZmGOLS and ZmRAFS genes in maize Hi-II callus cells, callus was cultured on N6 media supplemented with different concentrations of sugars and: a) grown at 25° C. in the dark (control conditions); b) exposed to 42° C. for 24 h (heated); c) exposed to 4° C. for 24 h (chilled); or d) exposed to a current of air at 25° C. in a laminar flow hood for 4 h (dehydrated). To determine the responsiveness of ZmGOLS and ZmRAFS genes to exogenous ABA, calli were grown on media with 1, 10, and 100 μM cis, trans-ABA (Sigma) under control conditions for 1 d prior to harvest and RNA extraction.
Samples of Hi-II cells growing on N6S2 were weighed and placed on N6S2, N6S5, or N6S5 supplemented with 0.1% w/v raffinose. Callus was grown for 4 d at 25° C. on these various media. The callus on a particular medium was separated into two equal sub-samples and the fresh weight obtained. A sub-sample of half of the callus cells per plate for each medium was subjected to dehydration stress by removal from the medium and exposure to a current of air in a flow hood for 4 h. The remaining half of the callus cells were not exposed to stress. After 4 h dehydration stress the callus was placed back on its respective medium for an additional 22 h. Previously stressed and non-stressed calli were then transferred to N6S2 for one week. At the end of the week the calli were weighed again to determine how much growth had occurred during the week. The growth of the cells was expressed as the increase in fresh weight after one week of growth on N6S2 relative to the callus fresh weight 7 days earlier (Dennehey et al.; 1994). This experiment was repeated 3 times.

ZmRAFS1 = ZmRAFS1 gene expression in maize Hi-II callus (northern blot); conditions: for ZmRAFS1 expression, effect of raffinose or galactose: 4% sucrose plus raffinose (0.01-1%) or 0.33% galactose, 42° C. for 1 d (FIG. 8C); for ZmRAFS1 mRNA accumulation with myo-inositol or mannitol in the media (FIG. 8A): 2% sucrose plus 0.01% myo-inositol or 7.8% mannitol, control, dehydrated, 4 or 42° C.
Procedure: as §1
(§2) Sucrose and raffinose amounts in N6 media were altered, singly for sucrose or in combination with raffinose, to determine if RAFS substrates or the final product of the coordinate action of GOLS and RAFS influenced ZmGOLS and ZmRAFS gene expression. Because it is not known whether sucrose or raffinose are taken up into Hi-II cells directly or if they are hydrolyzed prior to uptake, glucose, fructose, galactose, and melibiose were also supplied. Myo-inositol (1,2,3,5-trans-4,6-hexahydroxy cyclohexane, Sigma), a GOLS substrate, was added to N6S2 media at amounts from 0.01-1% w/v. To determine if gene expression was regulated by osmotic stress, N6S2 media was amended with 0.1% to 7.8% w/v mannitol. Callus cells were also grown on N6 with combinations of sugars and the myo-inositol isomer, scyllo-inositol. All chemicals were sterilized by filtration and added to autoclaved media cooled to 65° C. just prior to pouring the plates. Hi-II callus cells on these various media were maintained under control conditions or subjected to stress (see above) prior to being harvested for sugar or RNA extraction or moisture content analysis. Cells were transferred to amended N6 media for 8 days, the environmental stress (if any) applied, and the cells harvested.
(§3) Total RNA from seeds, regardless of treatment, was extracted according to Wan and Wilkins (1994). Total RNA (20 μg per lane) from seeds was transferred onto positively charged nylon membranes (Amersham Life Science Inc., Arlington Heights, Ill., USA) in 10×SSC (1×SSC is 150 mM NaCl and 15 mM Na citrate pH 7) overnight, the blot dried and UV cross-linked at 50 mJoules on a GS genelinker UV chamber (Bio-Rad Laboratories, Hercules, Calif., USA). After rinsing the membranes for 5 min in 2×SSC, blots were placed in pre-hybridization solution (50% formamide, 5× Denhardt's solution (Denhardt 1966), 100 μg ml^−1 boiled, sheared salmon sperm DNA, 0.2% SDS, 6×SSC pH 7.0, Sambrook et al. 1989) for 4-6 h at 42° C. Randomly labeled, radioactive cDNA probes ([^32P] dCTP) were hybridized to the blots for at least 12 h at the same temperature as pre-hybridization. The primary wash was done in 2×SSC, 0.1% SDS, RT for 5 min, and repeated but at 65° C. for 30 min. The two final high stringency washes were in 0.2×SSC, 0.1% SDS at 65° C. for 30 min each. The hybridized probe was detected by autoradiography using Kodak X-OMAT X-ray film (Eastman-Kodak Ltd.) or on a phosphoimaging screen using a Phosphorlmager (Molecular Dynamics).

ZmGOLS2 = ZmGOLS2 gene expression in maize Hi-II callus (northern blot, RPA); conditions: for ZmGOLS2 mRNA in stressed callus (FIG. 7A): 2% sucrose plus 0.01% myo-inositol or 7.8% mannitol, dehydration 4 h or heat 42° C. 24 h
Procedure: as §1, §2, §3
The high degree of sequence homology among ZmGOLS genes prompted verification of results from northern blot analysis using RPAs (RPA III, Ambion, Little Rock, Tex., USA). […]

[1] = unstressed cells on N6+2% (w/v) sucrose, 1, 10, 100 μM ABA, 1 d

OC[C@H]1O[C@@](CO)(O[C@H]2O[C@H](CO)[C@@H](O)[C@H](O)[C@H]2O)[C@@H](O)[C@@H]1O [2% sucrose, sucrose]
Relative weight gain, Dehydration stressed (Hi-II maize cells): 1.35 ± 0.16 b | Relative weight gain, Control (Hi-II maize cells): 1.89 ± 0.17 a

OC[C@H]1O[C@@](CO)(O[C@H]2O[C@H](CO)[C@@H](O)[C@H](O)[C@H]2O)[C@@H](O)[C@@H]1O [5% sucrose, sucrose]
Relative weight gain, Dehydration stressed (Hi-II maize cells): 1.37 ± 0.02 b | Relative weight gain, Control (Hi-II maize cells): 1.45 ± 0.04 b

CC1=CC(=O)CC(C)(C)[C@@]1(O)/C=C/C(C)=C\C(=O)O [ABA, abscisic acid]
ZmRAFS1 gene expression in response to applied ABA (ZmRAFS1; [1]): not induced beyond that of 2% sucrose alone | ZmGOLS2 gene expression in response to applied ABA (ZmGOLS2; [1]): not responsive to ABA

O=C[C@H](O)[C@@H](O)[C@@H](O)[C@H](O)CO [galactose]
ZmRAFS1 expression, effect of raffinose or galactose (ZmRAFS1): as effective as raffinose at repressing ZmRAFS1 expression at equal galactose molarities

OC[C@@H](O)[C@@H](O)[C@H](O)[C@H](O)CO [mannitol]
ZmRAFS1 mRNA accumulation with myo-inositol or mannitol in the media (FIG. 8A) (ZmRAFS1): did not influence ZmRAFS1 gene expression | ZmGOLS2 mRNA in stressed callus (FIG. 7A) (ZmGOLS2): upregulated ZmGOLS2 gene expression when subjected to dehydration but not to heat stress | ZmGOLS2 transcription, low mannitol (ZmGOLS2; dehydrated cells, 0.1-0.5% w/v): repressed ZmGOLS2 transcription below that present in cells grown on 2% sucrose alone | ZmGOLS2 transcription, very high mannitol (ZmGOLS2; dehydrated cells, 7.8% w/v): upregulated ZmGOLS2 transcription

O[C@H]1[C@H](O)[C@@H](O)[C@H](O)[C@@H](O)[C@H]1O [myo-inositol, 1,2,3,5-trans-4,6-hexahydroxy cyclohexane]
ZmRAFS1 mRNA accumulation with myo-inositol or mannitol in the media (FIG. 8A) (ZmRAFS1): did not elicit greater ZmRAFS1 mRNA accumulation with the exception of cells exposed to heat shock | ZmGOLS2 mRNA in stressed callus (FIG. 7A) (ZmGOLS2): ZmGOLS2 mRNA accumulation | ZmGOLS2 transcription, low myo-inositol (ZmGOLS2; dehydrated cells, 2% sucrose, 0.01-0.1% w/v): upregulated ZmGOLS2 transcription | ZmGOLS2 transcription, high myo-inositol (ZmGOLS2; dehydrated cells, 2% sucrose, 1% w/v): repressed ZmGOLS2 transcription below that on 2% sucrose alone

OC[C@H]1O[C@H](OC[C@H]2O[C@H](O[C@]3(CO)O[C@H](CO)[C@@H](O)[C@@H]3O)[C@H](O)[C@@H](O)[C@@H]2O)[C@H](O)[C@@H](O)[C@H]1O [raffinose]
callus mass accumulation (Hi-II maize cells; 0.1% raffinose in medium with 5% sucrose, unstressed): prevented the detrimental effect of high sucrose on callus mass accumulation | callus growth following dehydration stress (Hi-II maize cells; 0.1% w/v raffinose with 5% sucrose, 4 h dehydration): grew as well as callus that had not been subjected to dehydration; also recorded: capable of alleviating dehydration-induced damage | ZmRAFS1 expression, effect of raffinose or galactose (ZmRAFS1): may inhibit the expression of ZmRAFS1 upon attaining a sufficient concentration

O[C@H]1[C@H](O)[C@@H](O)[C@H](O)[C@@H](O)[C@@H]1O [scyllo-inositol]
ZmGOLS2 expression, low scyllo-inositol with high mannitol (ZmGOLS2; dehydrated cells, 2% sucrose (FIG. 7C)): did not alter the expression of ZmGOLS2 relative to similar concentrations of myo-inositol and mannitol

OC[C@H]1O[C@@](CO)(O[C@H]2O[C@H](CO)[C@@H](O)[C@H](O)[C@H]2O)[C@@H](O)[C@@H]1O [sucrose]
ZmRAFS1 gene expression, effect of sucrose and its monosaccharides (ZmRAFS1; heat-stressed callus, 2% (w/v) or greater sucrose (FIG. 8B, 8C)): up-regulated by sucrose
